Test results: BigSolDB 2.1

COc1cc2c(cc1OC)C(=O)CC2
solubility (mole fraction)
Conditions	283.15 K	288.15 K	293.15 K	298.15 K	303.15 K	308.15 K	313.15 K	318.15 K	323.15 K
in 2-butanone	0.0514	0.0623	0.0746	0.0891	0.105	0.125	0.149	0.177	0.208
in acetone	0.0486	0.0596	0.071	0.0834	0.101	0.122	0.146	0.173	0.2
in ethanol	0.00826	0.0112	0.0141	0.0193	0.0242	0.0317	0.0412	0.0519	0.0636
in ethyl acetate	0.0389	0.0492	0.059	0.0697	0.0842	0.101	0.122	0.147	0.171
in isobutanol	0.0123	0.0161	0.0212	0.0288	0.0385	0.0493	0.0646	0.0806	0.102
in isopropanol	0.00596	0.00802	0.0108	0.0146	0.0198	0.0269	0.0354	0.0455	0.0588
in isopropyl acetate	0.0264	0.0329	0.0396	0.0485	0.0581	0.0691	0.0801	0.0933	0.11
in methanol	0.0097	0.0124	0.0171	0.0238	0.0317	0.0418	0.0547	0.071	0.0902
in methyl acetate	0.0426	0.053	0.0665	0.0793	0.0986	0.118	0.139	0.159	0.185
in n-butanol	0.0118	0.0155	0.02	0.0268	0.0352	0.0451	0.0583	0.0739	0.0925
in n-butyl acetate	0.025	0.0294	0.0359	0.0428	0.0503	0.0593	0.0695	0.0795	0.0897
in n-pentanol	0.0115	0.0156	0.0216	0.0278	0.0386	0.0509	0.0659	0.0827	0.104
in n-propanol	0.00925	0.0119	0.0158	0.0206	0.0281	0.0356	0.0457	0.0579	0.0695
in n-propyl acetate	0.034	0.0424	0.05	0.0596	0.0694	0.0821	0.0962	0.109	0.129
in sec-butanol	0.0105	0.0147	0.0199	0.0272	0.0357	0.0461	0.0612	0.0766	0.0943
